Experimental data taken from patent US8173133B2, “Acyl pseudodipeptides which carry a functionalized auxiliary arm” (OM Pharma, priority 1999, dated 2012).
Converted amounts (≈) assume the structure as drawn.

Legend:
murine macrophage cells = test: nitric oxide production by murine macrophage cells (Griess); assay type: cell-based, C57/BL6 mice
In short: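 Bone-marrow macrophages from male C57/BL6 mice, differentiated 8 days with L929 supernatant, exposed to serially diluted compound for 22 h at 37 °C. Nitrite in supernatant measured by Griess reaction (562 nm vs 690 nm) against a standard curve. EC50 is concentration giving 50% of maximum amplitude, by line-segment interpolation.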

[1] = tested on: predendritic cells (DC-6); test: dendritic cell differentiation test: FITC-Dextran take-up; assay type: cell-based, human
Description: The ability of products of the invention to induce maturation of predendritic cells into dendritic cells was assessed. The following parameters were measured: FITC-Dextran conjugate take-up and expression of CD83, CD86 surface markers.
Mononucleated cells of peripheral blood are isolated from buffy coats of healthy donors. Purified monocytes by adherence selection are resuspended in RPMI-1640 medium containing 10% of foetal calf serum (FCS), GM-CSF and IL-4 (10 ng/ml) at a density of 1×10^6 cells/ml. Cells are divided into Petri Dishes (10×10^6 cells per dish) and cultured for 6 days with a change to fresh medium after 3 days. Cells thus obtained are called predendritic cells (DC-6). Maturation of predendritic cells into mature dendritic cells is achieved by incubating cells with diluted solutions of the products or LPS (positive control) for 3 more days (see product section below). At day 9 (DC-9), cells are harvested and analyzed for different indicators of dendritic cell maturation: assessment of CD83, CD86 surface marker expression as well as of their ability to take up FITC-Dextran conjugate. All these parameters are analyzed by an EPICS-XL-MCL model FACS (Coulter Immunology, Hialeah, […]).
Expression of surface markers is given as % of mean fluorescence of LPS-activated cells (positive control); FITC-Dextran conjugate take-up rate is calculated based on take-up of cells maintained in basic medium and is expressed in %.
Solutions are incubated at 37° C. for 20 minutes, subjected to vigorous stirring during 3 minutes and then diluted to 100 μg/ml in RPMI-1640 culture medium and used in diluted state at concentrations ranging from 10 μg/ml to 0.03 μg/ml. Reference Product: E. coli lipopolysaccharide (LPS, DIFCO, Detroit, Mich., U.S.A.), as a 5 mg/ml stock solution in PBS. An intermediate 100 μg/ml solution is prepared in RPMI 1640 culture medium. Concentrations of dilute solutions being tested range from 1 μg/ml to 0.03 μg/ml.
In another series of experiments, all acyl dipeptide-like compounds were freeze-dried and directly redissolved into pyrogen-free water. Different products as well as LPS control are tested at a concentration of 10 μg/ml. Results are given as % of dendritic cells and mean fluorescence value for dextran phagocytosis or CD86 surface marker expression.
Immature dendritic cells (DC-6) resulting from monocyte differentiation, through the joint action of GM-CSF and IL-4, are able to incorporate FITC-Dextran conjugate. During the maturation process, cells lose their ability to incorporate the FITC-Dextran conjugate. Assays are conducted upon reaching the DC-9 differentiation stage.

[2] = tested on: Limulus Amoebocyte Lysate

CCCCCCCCCCCC(=O)O[C@H](CCCCCCCCCCC)CC(=O)N[C@H](CC(=O)O)C(=O)NCCC[C@H](CO)NC(=O)C[C@H](O)CCCCCCCCCCC [OM-197-MC, N—[(R)-3-dodecanoyloxytetradecanoyl]-D-aspartic acid, α-N-{(4R)-5-hydroxy-4[(R)-3-hydroxytetradecanoylamino]-pentyl}amide]
Max concentration (murine macrophage cells; concentration at maximum amplitude): 51 µg/mL | EC50 conc (murine macrophage cells; concentration corresponding to 50% of maximum amplitude): 1.23 µg/mL (≈ 1.42 µM) | Min concentration (murine macrophage cells; lowest concentration inducing a significant response): 0.15 µg/mL | decrease of phagocytic capacity ([1]; 10 μg/ml): 22% | effect on phagocytosis ([1]; concentrations lower than 3 μg/ml): no effect on phagocytosis | concentration inducing differentiation of DC-6 cells into DC-9 cells ([1]; summary of phagocytosis and marker data): greater than 1 μg/ml | LAL EU/mg of product [2]: 88.6 EU/mg of product | LAL ng of LPS equivalent per mg of product [2]: 7.4 ng of LPS equivalent per mg of product
